Assay results published in patent US7045661B2, “Crystalline forms of venlafaxine hydrochloride” (Ciba Specialty Chemicals Corporation, priority 2000, dated 2006).

Test: Relative thermodynamic stability of crystalline forms
Type: physicochemical
Details: compared with the previous known Form C

COc1ccc(C(CN(C)C)C2(O)CCCCC2)cc1.Cl (stereo not shown) [Form B, 1-[(2-dimethylamino)-1-(4-methoxyphenyl)ethyl]cyclohexanol hydrochloride]
thermodynamic stability: thermodynamically more stable than the previous known Form C
